Bounds are passed on as bounds.

For orientation: melting point means the temperature, or range, at which the solid turns liquid. In turn, `CC(=O)NCc1ccc(-c2nc(N)sc2C)s1` displayed a melting point of 154 to 156 °C.

In turn, `O=C(O)CCc1nnc(-c2ccccn2)o1` had a melting point of 191 to 193 °C.

In the case of `CCC(NC(=O)c1ccccc1)C(N)=S` (stereo not drawn), the melting point lay within 244 to 246 °C.

`Nc1cnn(-c2cnc3ccccc3n2)c1`: the melting point was in the range of 169 to 171 °C.

`CC(C1CC1)N(C)C(=O)c1ccc[nH]c1=O` (stereo not drawn) displayed a melting point of 187 to 189 °C.

As to `COc1cccc(CNc2ccc3[nH]c(=O)[nH]c3c2)c1`, the melting point was 190 to 192 °C.

For `COC(=O)c1sc(N)nc1C`, the melting point is 171 to 174 °C.

As to `CCCCNC(=O)Nc1cccc2c1CCCN2`, the melting point was 173 to 175 °C.

For `CN1CC(=O)Nc2cccnc21`, the melting point was 161 to 163 °C.

As for `CC(C)(c1cc(N)on1)S(C)(=O)=O`, the melting point was in the range of 179 to 181 °C.

`O=C(O)c1c[nH]c2cccc(F)c12` gave a melting point of 209 to 211 °C.

The compound `COc1cc(OC)cc(C(N)c2nccn2C)c1` (stereo not drawn) showed a melting point of 99 to 101 °C.

The compound `Nc1ccc(Cl)c(C(=O)NC2CC2)c1` showed a melting point of 126 to 128 °C.

Regarding `O=[N+]([O-])c1n[nH]cc1Br`, the melting point lay within 193 to 195 °C.

Compound `CS(=O)(=O)NCc1cccc(CN)c1` displayed a melting point of 70 to 72 °C.

Take `Nc1nc(-c2cc(Cl)sc2Cl)cs1`: the melting point was in the range of 144 to 146 °C.

Take `Nc1ccc(OCC2CCCCC2)cc1`: the melting point was in the range of 53 to 55 °C.

For `Cc1ccc(C)c(-n2nnnc2SCC(=O)O)c1`, the melting point fell in the range of 157 to 159 °C.

Regarding `CCC(CC)(CN)NC(=O)OC(C)(C)C`, the melting point fell in the range of 49 to 51 °C.

With `O=C(Nc1cccnc1)c1cccc(Br)c1`, the melting point lay within 133 to 135 °C.

`O=C(O)C1CCN(c2ccc(Cl)cc2)C1=O` (stereo not drawn) had a melting point of 158 to 160 °C.

Compound `NC(Cc1ccccc1)(C(=O)O)c1ccccc1` (stereo not drawn) came in with a melting point of 264 to 266 °C.

Compound `Nc1cc(-c2cccnc2)no1` gave a melting point of 174 to 176 °C.

The compound `CS(=O)(=O)Nc1cc(C(=O)O)ccc1F` came in with a melting point of 250 to 252 °C.

Regarding `CCOc1ccc(/C=C/C(=O)O)cc1OC`, the melting point was in the range of 202 to 204 °C.

For `Cc1cc(F)ccc1CO`, the melting point fell in the range of 44 to 46 °C.

Regarding `COc1ccc(Oc2ccc(N)cn2)cc1`, the melting point is 95 to 97 °C.

In the case of `CC(C)Nc1ccc(Br)cn1`, the melting point was 69 to 71 °C.

In turn, `NNC(=O)Nc1ccc(CCO)cc1` registered a melting point of 149 to 151 °C.

`O=C(O)c1ccc(Br)c(S(=O)(=O)Cl)c1`: the melting point was 181 to 183 °C.

`CN(C)S(=O)(=O)c1ccc(N2CCOCC2)c(N)c1` registered a melting point of 174 to 176 °C.

Compound `O=C(O)CCCNC(=O)c1ccc2[nH]nnc2c1` displayed a melting point of 230 to 232 °C.

Turning to `COC(=O)c1ccc(S(=O)(=O)Cl)cc1C`, the melting point fell in the range of 54 to 56 °C.

Take `O=C1CCCc2cc(Br)ccc2N1`: the melting point was in the range of 119 to 121 °C.

`COc1cccc(C(N)(C(=O)O)C(F)(F)F)c1` (stereo not drawn) yielded a melting point of 139 to 141 °C.

`O=C(O)c1csc(COc2ccc(Cl)cc2)n1` returned a melting point of 217 to 219 °C.

As for `O=C(O)CCc1nc(-c2ccsc2)no1`, the melting point lay within 153 to 155 °C.

Take `O=C(O)CCc1nnc(-c2cc(F)ccc2Br)o1`: the melting point was in the range of 153 to 155 °C.

Compound `Cc1nn(CCO)c(C(F)(F)F)c1C(=O)O` gave a melting point of 151 to 153 °C.

With `COC(=O)c1ccccc1-n1ncc(Cl)c(Cl)c1=O`, the melting point lay in the range of 125 to 127 °C.

With `O=Cc1c(-c2ccccc2)n(-c2ccccc2)c2ccccc12`, the melting point lay in the range of 246 to 248 °C.

Turning to `COc1cc(N)ccc1S(=O)(=O)N1CCCC1`, the melting point is 145 to 147 °C.

The compound `Cc1ccc(-c2nnc(C(C)Cl)o2)cc1` (stereo not drawn) gave a melting point of less than 17 °C.

Take `O=C(O)c1ccc(NS(=O)(=O)c2cccs2)cc1`: the melting point was in the range of 226 to 228 °C.

`CN(C)c1nnc(S)s1` returned a melting point of 178 to 180 °C.

For `COc1ccc(-c2nn(-c3ccccc3)cc2C=O)cc1`, the melting point was 135 to 137 °C.

The compound `CN1C(=O)c2ccc(C(=O)O)cc2S1(=O)=O` displayed a melting point of 249 to 251 °C.

`O=C(O)c1cc2ccc(F)cc2[nH]1` yielded a melting point of 227 to 229 °C.

Compound `N#CCc1ccc(-n2cccn2)cc1` displayed a melting point of 127 to 129 °C.

`CCSc1cccc(C(=O)O)c1` came in with a melting point of 95 to 97 °C.

`OC1(Cc2ccccc2)CCCC1` gave a melting point of 56 to 58 °C.

`Cn1c(C2CC2)nc2c1CCNC2` yielded a melting point of 169 to 171 °C.

As to `CN(C)c1ccc(Br)c(S(=O)(=O)Cl)c1`, the melting point lay within 111 to 113 °C.

For `NNc1nc(-c2cccnc2)no1`, the melting point was 169 to 171 °C.

As to `O=C1CCCc2c1sc1ccccc21`, the melting point lay in the range of 113 to 115 °C.

For `CC(Cl)c1nnc(-c2ccc(Cl)c(Cl)c2)o1` (stereo not drawn), the melting point was in the range of 93 to 95 °C.

`N#CCOc1cccc(CC(=O)O)c1` came in with a melting point of 79 to 81 °C.

As for `CC(C)CCC(C)NC(=O)C1CSCN1` (stereo not drawn), the melting point lay within 77 to 79 °C.

Take `N#Cc1ccc(OC(F)F)c(N)c1`: the melting point was 86 to 88 °C.

The compound `FC(F)c1nc(Cl)c2ccccc2n1` returned a melting point of 85 to 87 °C.

`O=C(O)CCCOc1ccc(Cl)cc1`: the melting point was 114 to 116 °C.

In the case of `O=[N+]([O-])c1ccc(O)c(Cc2ccccc2)c1`, the melting point lay within 117 to 121 °C.

Compound `COc1cc(C(=O)O)ccc1OCc1ccccc1Cl` gave a melting point of 143 to 145 °C.

Turning to `O=C(c1ccccc1)c1ccc(OC(F)F)cc1`, the melting point lay within 156 to 158 °C.

On to `Cc1nc(C(=O)O)nn1-c1ccccc1`, for which the melting point was in the range of 172 to 174 °C.

In turn, `Cc1ccc(-n2cnnc2SCC(=O)O)cc1` had a melting point of 218 to 220 °C.

Regarding `Cn1[nH]c2c(c1=N)CCC2`, the melting point was in the range of 134 to 136 °C.

For `CC(C)(C)c1ccc(CC(=O)O)cc1`, the melting point lay within 76 to 78 °C.

`CC(C)(C)Cc1cc(N)n(-c2ccccc2)n1` gave a melting point of 95 to 97 °C.

In turn, `O=C(O)C=Cc1cncc(F)c1` had a melting point of 234 to 236 °C.

`OCCn1nccc1C1CCNCC1` yielded a melting point of 126 to 128 °C.

`CC(C)(C)OC(=O)CNc1ccc2c(c1)OCO2` came in with a melting point of 70 to 72 °C.

With `Cc1nc(COc2ccc(Cl)cc2)sc1C(=O)O`, the melting point is 239 to 241 °C.

Consider `CC(CC(=O)c1cccc(F)c1)C(=O)O` (stereo not drawn), for which the melting point fell in the range of 96 to 98 °C.

`CCCOc1ccc(CC(=O)O)cc1OCCC` displayed a melting point of 59 to 61 °C.

With `Cc1ccc(F)c2c1NC(=O)C2=O`, the melting point is 227 to 229 °C.

The compound `O=c1[nH]nc(-c2ccc(Cl)c(Cl)c2)c2ccccc12` returned a melting point of 274 to 276 °C.

In the case of `NCc1cccc(NC(=O)C2CC2)c1`, the melting point fell in the range of 96 to 98 °C.

`CN(c1ccc(O)cc1)S(=O)(=O)c1ccccc1F`: the melting point is 100 to 102 °C.

Regarding `Oc1cccc(Oc2ccncc2)c1`, the melting point is 119 to 121 °C.

Consider `NS(=O)(=O)c1ccc2c(c1)oc(=O)n2CC(=O)O`, for which the melting point was 168 to 170 °C.

In turn, `CCOc1ccc(S(=O)(=O)N2CCNCC2)cc1OCC` came in with a melting point of 132 to 134 °C.

Consider `Cc1cc(C)nc(-n2nc(C)cc2NC(=O)CCl)n1`, for which the melting point was in the range of 185 to 187 °C.

`NC(=S)CCN1CCOC1=O` returned a melting point of 140 to 142 °C.

In the case of `Cc1ccc(/C=C/C(=O)O)c(C)c1`, the melting point fell in the range of 182 to 184 °C.

As to `CN(C)S(=O)(=O)c1ccccc1C#N`, the melting point lay within 57 to 59 °C.

As for `COC(=O)c1cc(O)c(C)c(F)c1`, the melting point lay in the range of 129 to 131 °C.

In turn, `CC(C)(C(=O)O)c1ccc(Br)cc1` returned a melting point of 123 to 125 °C.

For the compound `O=c1cc[nH]c2c(Br)cccc12`, the melting point lay in the range of 173 to 175 °C.

`O=S(=O)(CCCl)c1ccc(Br)cc1` returned a melting point of 110 to 112 °C.

For `CC(C#N)NC(=O)OC(C)(C)C` (stereo not drawn), the melting point was 94 to 96 °C.

For `Nc1cccc(CS(=O)C2CCCCC2)c1` (stereo not drawn), the melting point was in the range of 88 to 90 °C.

With `CC(C)NO`, the melting point is 73 to 75 °C.

In turn, `O=C(NCc1ccc(F)cc1)C1CCNCC1` yielded a melting point of 139 to 141 °C.

In the case of `COCCn1c(C)c(C)c2cc(C(=O)O)ccc21`, the melting point lay in the range of 219 to 221 °C.

Compound `CC(C)NC(=O)N1CCC(C(=O)O)CC1` returned a melting point of 137 to 139 °C.

On to `CC(C)c1nonc1N`, for which the melting point was in the range of 43 to 45 °C.

Turning to `NC(=O)c1n[nH]c2ccc(N)cc12`, the melting point lay in the range of 199 to 201 °C.

`Cc1cc2ncc(C=O)cn2n1`: the melting point was 149 to 151 °C.

`NC(=O)c1nc(Cl)ccc1N` returned a melting point of 164 to 166 °C.

Compound `Nc1ccc(CSc2ccccn2)cc1` had a melting point of 103 to 105 °C.

`Nc1ccc(Sc2nncs2)c(Cl)c1`: the melting point lay in the range of 112 to 114 °C.

Consider `CC(C)(C)OC(=O)Nc1cscn1`, for which the melting point was 153 to 155 °C.

Regarding `O=C(O)c1ccccc1OCc1ccc(F)cc1`, the melting point is 80 to 84 °C.

In the case of `N#Cc1ccc(NCC(=O)O)nc1`, the melting point lay within 167 to 169 °C.

`N#CCCn1cc(C(=O)O)c(-c2cccc(Br)c2)n1` had a melting point of 154 to 156 °C.

For the compound `Cn1nc[nH]c1=O`, the melting point is 169 to 171 °C.

`O=C1Nc2ccccc2S(=O)(=O)N1` came in with a melting point of 301 to 303 °C.

Regarding `NC(Cc1c[nH]c2cc(F)ccc12)C(=O)O` (stereo not drawn), the melting point was in the range of 283 to 285 °C.

`Cn1cnnc1-c1ccccc1` showed a melting point of 114 to 116 °C.

With `O=C1c2ccncc2C(=O)N1CCO`, the melting point was in the range of 106 to 108 °C.

Take `N#Cc1ccc2c(c1)C=CS2(=O)=O`: the melting point lay in the range of 149 to 151 °C.

The compound `O=C1COc2cccc(O)c2N1` showed a melting point of 247 to 249 °C.

Consider `N#CCC(=O)c1cccc2c1OCCO2`, for which the melting point is 99 to 101 °C.

Consider `CCOC(=O)/C(C#N)=C(\N)C(Cl)(Cl)Cl`, for which the melting point was in the range of 94 to 96 °C.

`CC(=O)N1CCN(CCC(=O)O)CC1` had a melting point of 114 to 116 °C.

Turning to `NC(=O)c1cc(N)nc2ccccc12`, the melting point is 199 to 201 °C.

`O=C(O)c1ccc(N/N=C/c2cccc(F)c2)cc1`: the melting point lay within 229 to 231 °C.

The compound `COC(=O)c1cc(S(=O)(=O)Cl)c(Br)cc1F` came in with a melting point of 105 to 107 °C.

In the case of `CC1(C)CCCCC1=CC(=O)O`, the melting point lay in the range of 89 to 91 °C.

In turn, `Cc1ccc(S(=O)(=O)OC2CCS(=O)(=O)C2)cc1` (stereo not drawn) yielded a melting point of 80 to 82 °C.

As to `CN(C)c1ncnc(Cl)c1N`, the melting point is 114 to 116 °C.

Regarding `Cc1cccc(C)c1NS(=O)(=O)c1ccc(N)cc1`, the melting point lay within 212 to 214 °C.
